Results from patent US5221616A, “Prevention of spontaneous complement activation in mammalian biological fluids” (Quidel Corporation, priority 1988, dated 1993).
“Also recorded” adds a separate entry of the source. Values belong to the compound of their own block, whether it stands above or below them.

What was measured:
complement = experiment: protection against spontaneous complement activation in complement-containing samples during in vitro storage (summary of fragment EIAs); type: biochemical, human; details: for final concentration identified as particularly effective: added to a complement-containing sample; for range of final concentrations found to provide protection against spontaneous complement activation: complement-containing samples during in vitro storage; for acceptable range of final concentration at which spontaneous C activation will be prevented: ingredient of the formulation
Description: A method for screening compounds to determine the complement preventing effectiveness thereof is described in detail in the course of the following experimental description and discussion. The method essentially comprises treating complement-containing samples with various doses of the test compounds, storing the thus-treated sample at conventional storage temperature for a minimum of about 48 hours and determining the extent of complement activation which occurs during the storage period by performing assays on the sample for various complement activation products. The results are compared with determination of the level of the same activation products at the beginning of the storage period, i.e., a non-incubated control sample. A non-treated control, comprising an identical sample diluted with phosphate buffered saline (PBS) in a volume ratio identical to that of the sample and polyhydroxyl solution is similarly assayed.
(§1) The concentrations, expressed as μg analyte/mL, of a number of different activation products of spontaneous complement activation were measured in the course of these experiments. In an effort to normalize the data obtained from the various determinations so that the results from different assays could be directly compared to one another, a percent protection value was calculated for each analyte measured. The precent protection values were calculated by dividing the μg analyte/mL in the non-incubated, time-zero control sample by the μg analyte/mL in the experimental sample, multiplied by 100%. A percent protection value of 70 to 130% for any given analyte measured in an experimental sample was considered to indicate that the invention formulation tested was fully effective at providing protection against the occurrence of spontaneous complement activation. Ideally, the effective composition formulation would provide full protection against the occurrence of spontaneous complement activation in a complement-containing sample for all of the analytes measured. In fact, this was the case with several polyhydroxyl compounds when they were present in sufficiently high concentrations in a preferred embodiment of the invention.
A percent protection value range of 70 to 130% was used as a criterion to define that a given invention embodiment was able to provide full protection against spontaneous complement activation for the following reasons: The coefficient of variation for the EIA kits employed in these studies ranged from 10-30% when analyte levels were measured in the very low range of values found in freshly-drawn normal human plasma samples. Therefore, in order to ensure that a given result fell within the variability range of the assays employed, a percent protection value between 70 and 130% was considered to represent a fully protective effect.

C3 [1] = biological target: T1, C3 (Homo sapiens, UniProt P01024); experiment: iC3b fragment EIA: spontaneous C3 activation in EDTA-NHP incubated with increasing concentrations of polyhydroxyl compound in water; type: biochemical; details: 22° C. for 48 hr; for spontaneous iC3b fragment production: increasing final concentrations of compound (galactose up to 2M)
T1 construct: 250 μL of freshly drawn EDTA-normal human plasma (EDTA-NHP); from tissue; host or cells: normal human blood plasma (EDTA plasma; in A12 also citrate and heparin plasma)
Description: FIG. 1. […] 250 μL of freshly drawn EDTA-normal human plasma (EDTA-NHP) was mixed with 0 to 250 μL of 4M β-D-glucose dissolved in deionized water. All reaction mixtures were brought up to a final reaction volume of 500 μL using deionized water as the diluent. Each reaction mixture was mixed thoroughly, incubated at 22° C. for 48 hr and assayed for iC3b fragment levels. A non-incubated control (-70° C.) was prepared by mixing 1 part EDTA-NHP with 1 part 4M β-D-glucose dissolved in deionized water. This control reaction mixture was stored at -70° C. until it was assayed in the iC3b fragment EIA along with the incubated experimental samples.
Several different polyhydroxyl compounds were individually dissolved in deionized water to obtain solutions of each compound at a concentration approaching saturation at 22° C. Freshly drawn EDTA-NHP was mixed with increasing concentrations of the polyhydroxyl compound to be tested keeping the final reaction volumes constant. For example, 250 μL of freshly drawn EDTA-NHP was mixed with 0 to 250 μL of the concentrated polyhydroxyl solution to be tested. All reaction mixtures were brought up to a final reaction volume of 500 μL using deionized water as the diluent. Each reaction mixture was mixed thoroughly and incubated at 22° C. for 48 hr. A non-incubated control was prepared for each experiment by mixing 1 part EDTA-NHP with 1 part of the concentrated polyhydroxyl solution to be tested. This control mixture was held at -70° C. until it was thawed out, along with the other experimental samples, and assayed for the occurrence of spontaneous complement activation. For this initial set of experiments, iC3b fragment levels were quantitated in all test samples using the Cytotech monoclonal antibody based EIA procedure. The first analyte selected to be measured was iC3b since, based on previously published data as outlined above, it was anticipated that the C3 protein would be the most susceptible to spontaneous activation upon storage of EDTA-NHP in vitro.
All of the EIA tests employed in these studies utilized solid-phase monoclonal antibody capture assay kit procedures (Cytotech, Inc., San Diego, Calif.). The procedure was basically the same for each EIA kit. Briefly, in the first step of each EIA assay, 100 μL of standards, controls and diluted test specimens were incubated at 22° C., i.e., room temperature, in duplicate polystyrene microtiter wells precoated with a capture monoclonal antibody which specifically reacted with the complement fragment or complex under investigation. During this first incubation period, complement fragments or complexes were bound to the monoclonal antibody coated microassay wells. A wash cycle removed unbound materials.
In the second step, 50 μL of horseradish peroxidase (HRP)-conjugated purified IgG antibody, which reacted with the captured complement fragment or complex analyte, was added to each well and incubated at 22° C. A wash cycle removed unbound conjugate.
In the third step, 100 μL of the HRP enzyme substrate ABTS (0.034% ABTS and 0.0126% H2 O2 in 100 mM sodium citrate buffer, pH 4.0) was added to each well and incubated at 22° C. The bound HRP-conjugatedantibody reacted with the ABTS substrate producing a green color which was proportional to the amount of specimen analyte bound. The HRP-enzymatic reaction was stopped upon addition of 50 μL 250 mM oxalic acid. The substrate color intensity present in each well was measured at 405 nm using an automated EIA microplate reader and the analyte concentration/mL in the original test specimen was determined for each analyte from the appropriate standard curve.
iC3b EIA: The capture mouse monoclonal antibody used to coat microtiter wells for the iC3b fragment EIA was Cytotech MoAb 013III-1.1.6.1 which reacts with a neoantigenic determinant expressed on the iC3b activation fragment of human C3.

C3 [2] = biological target: T1, C3; experiment: polyhydroxyl compounds in Buffer B mixed with EDTA-NHP: iC3b and C3d,g/iC3b fragment EIA; type: biochemical; details: 22° C. for 48 hr
Description: (§2) An extensive series of experiments were conducted to examine the ability of a large variety of polyhydroxyl compounds to prevent the spontaneous activation of C in EDTA-NHP during in vitro storage at 22° C for 48 hr. EDTA-NHP was mixed with an equal volume of Buffer B containing the polyhydroxyl compound to be tested. In these experiments Buffer B consisted of 40 mM EDTA and 30 IU sodium heparin/mL dissolved in deionized water, pH 7.2. The final concentration of polyhydroxyl compound dissolved in Buffer B varied for each compound due to differences in solubility. For each set of experiments, EDTA-NHP was also diluted and mixed with an equal volume of PBS (untreated control). The EDTA-NHP samples mixed with each polyhydroxyl compound dissolved in Buffer B and the corresponding untreated controls were incubated at 22° C. for 48 hr, stored at -70° C. and subsequently assayed for C4d, iC3b, C3d,g/iC3b and Bb complement fragment levels as well as for circulating immune complex levels using the Raji Cell Replacement EIA. […] This conclusion was based upon the iC3b percent protection values determined for each of the polyhydroxyl compounds (treated samples) as listed in FIG. 14.
as §1
A plasma dilution of 1:50 and a serum dilution of 1:100 were used in the iC3b fragment EIA tests. The immunochemical reaction specificity of MoAb 013III-1.1.6.1 has been published previously in abstract form, W. P. Kolb, et al., Fed. Proc. 44:990 (1985).
A plasma dilution of 1:250 and a serum dilution of 1:500 were used in the C3d,g/iC3b EIA tests. […] 135:2015-2019 (1985); Y. Kanayama, et al., J. Immunol. Meth. 88:33-36 (1986). The immunochemical reaction specificity of the Cytotech MoAb 013III-31.4.3.2.2has been published previously in abstract form, W. P. Kolb, et al., FASEB Journal 2:A1834 (1988).

[3] = test system: coagulation system and fibrin clot formation; details: whole blood or plasma; cited from earlier work
complement system = details: plasma or serum; cited from earlier work
C4 [4] = experiment: polyhydroxyl compounds in Buffer B mixed with EDTA-NHP: C4d fragment EIA; type: biochemical, human; details: 22° C. for 48 hr
Description: as §2, §1

[5] = test system: C3, Factor B, or the terminal complement proteins; experiment: effect of sodium heparin on storage behavior of other complement proteins; type: biochemical, human; details: sodium heparin in the stabilizing formulation
C4 [6] = experiment: C4d fragment EIA: heparin plasma or heparin whole blood stored on ice or at 22° C.; type: biochemical, human
Description: The first set of experiments addressed the question of how long can a human complement-containing sample be incubated at various temperatures in vitro before evidence of spontaneous C activation can be measured. In FIG. 16 results are presented in which freshly drawn EDTA-NHP, heparin plasma, heparin whole blood or EDTA whole blood were stored on ice (1° C.) or at 22° C. […] In the case of the whole blood samples, the cells were removed by centrifugation before the plasma supernatants were collected and stored at -70° C. […] The other components of the invention composition are also required in order to obtain full protection against spontaneous C activation. This point will be covered in further detail below.

T1 sequence (P01024 672-1663 limits assumed): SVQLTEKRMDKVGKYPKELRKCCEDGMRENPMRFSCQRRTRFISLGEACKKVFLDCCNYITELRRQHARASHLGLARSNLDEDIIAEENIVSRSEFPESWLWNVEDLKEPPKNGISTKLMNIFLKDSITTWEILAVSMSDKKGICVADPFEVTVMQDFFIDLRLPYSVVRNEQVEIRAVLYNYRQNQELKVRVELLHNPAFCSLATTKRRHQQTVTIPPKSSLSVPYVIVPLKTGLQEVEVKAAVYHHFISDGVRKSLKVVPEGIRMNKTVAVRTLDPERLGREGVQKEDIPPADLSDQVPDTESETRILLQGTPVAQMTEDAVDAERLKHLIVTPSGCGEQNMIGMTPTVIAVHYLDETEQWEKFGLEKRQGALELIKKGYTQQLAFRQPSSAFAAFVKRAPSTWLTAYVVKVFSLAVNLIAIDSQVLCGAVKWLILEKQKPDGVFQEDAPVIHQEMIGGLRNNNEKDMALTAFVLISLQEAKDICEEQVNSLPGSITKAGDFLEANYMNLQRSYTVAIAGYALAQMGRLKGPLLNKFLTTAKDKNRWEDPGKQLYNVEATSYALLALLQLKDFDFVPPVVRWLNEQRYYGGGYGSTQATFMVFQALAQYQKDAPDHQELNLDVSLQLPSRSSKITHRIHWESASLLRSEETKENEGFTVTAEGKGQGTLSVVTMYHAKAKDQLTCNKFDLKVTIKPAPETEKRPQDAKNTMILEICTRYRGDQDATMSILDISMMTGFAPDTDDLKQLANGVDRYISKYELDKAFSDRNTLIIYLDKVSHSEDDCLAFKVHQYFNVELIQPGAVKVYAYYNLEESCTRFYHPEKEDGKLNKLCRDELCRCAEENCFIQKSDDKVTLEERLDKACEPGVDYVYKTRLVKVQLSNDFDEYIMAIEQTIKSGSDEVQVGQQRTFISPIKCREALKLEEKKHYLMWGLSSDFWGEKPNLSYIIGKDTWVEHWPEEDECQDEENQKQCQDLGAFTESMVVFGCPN
T1 sequence (P01024 23-667 limits assumed): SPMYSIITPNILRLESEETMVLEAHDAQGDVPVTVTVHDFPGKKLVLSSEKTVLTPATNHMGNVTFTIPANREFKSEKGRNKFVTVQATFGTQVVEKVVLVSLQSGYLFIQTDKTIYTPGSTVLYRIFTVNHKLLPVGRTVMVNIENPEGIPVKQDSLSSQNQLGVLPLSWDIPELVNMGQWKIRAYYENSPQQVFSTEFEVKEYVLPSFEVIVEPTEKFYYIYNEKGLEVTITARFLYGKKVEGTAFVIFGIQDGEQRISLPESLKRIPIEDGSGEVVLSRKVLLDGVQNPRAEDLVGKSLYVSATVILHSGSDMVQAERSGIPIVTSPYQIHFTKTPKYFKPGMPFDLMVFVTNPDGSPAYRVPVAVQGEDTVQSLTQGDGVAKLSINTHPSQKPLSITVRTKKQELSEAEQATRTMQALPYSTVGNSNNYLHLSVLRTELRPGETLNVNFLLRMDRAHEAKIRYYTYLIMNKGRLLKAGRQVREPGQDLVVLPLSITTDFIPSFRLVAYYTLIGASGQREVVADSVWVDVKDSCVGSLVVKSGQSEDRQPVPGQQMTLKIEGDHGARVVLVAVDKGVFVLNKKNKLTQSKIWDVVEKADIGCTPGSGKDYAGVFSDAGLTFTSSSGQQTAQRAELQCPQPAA

Compound: OC[C@H]1O[C@@H](OC[C@H]2OC(O)[C@H](O)[C@@H](O)[C@@H]2O)[C@H](O)[C@@H](O)[C@@H]1O (stereo partly shown) [gentiobiose]
- final concentration identified as particularly effective (complement): ≥ 1.5 M
- range of final concentrations found to provide protection against spontaneous complement activation (complement): 1.0 to 4 M
- spontaneous iC3b fragment production (C3 [1]): inhibited with increasing concentrations

Compound: O=C(O)CN(CCN(CC(=O)O)CC(=O)O)CC(=O)O [EDTA, ethylene diamine tetraacetic acid]
- acceptable range of final concentration at which spontaneous C activation will be prevented (complement): 1 to 40 mM
- final concentration that inhibits activation of the coagulation system and fibrin clot formation [3]: ≥ 1 mM
- final concentration that inhibits activation of the complement system (complement system): ≥ 1 mM

Compound: OC[C@@H](O)[C@@H](O)[C@H](O)[C@H](O)CO [D-mannitol]
- prevention of spontaneous activation of C4 (C4d fragment production) (C4 [4]; final concentration 1.5M): unable to inhibit
- prevention of spontaneous activation of C3 (C3 [2]; final concentration 1.5M): ineffective; also recorded: unable to inhibit

Compound: OC[C@H]1O[C@H](OC[C@H]2O[C@H](O[C@]3(CO)O[C@H](CO)[C@@H](O)[C@@H]3O)[C@H](O)[C@@H](O)[C@@H]2O)[C@H](O)[C@@H](O)[C@H]1O [D-raffinose]
- prevention of spontaneous activation of C4 (C4d fragment production) (C4 [4]; final concentration 1.5M): unable to inhibit
- prevention of spontaneous activation of C3 (C3 [2]; final concentration 1.5M): ineffective; also recorded: unable to inhibit

Compound: galactose
- prevention of spontaneous activation of C3 (C3 [2]; final concentration 2M): ineffective
- spontaneous iC3b fragment production (C3 [1]): only slight inhibition

Compound: sodium heparin
- effect on storage behavior of C3, Factor B, or the terminal complement proteins [5]: does not improve the storage behavior
- acceptable range of final concentration at which spontaneous C activation will be prevented (complement): 15-60 IU/mL
- prevention of spontaneous activation of C4 (C4 [6]; heparin alone, 22° C for as long as 24 hr): not sufficient to prevent
- time without clear evidence of spontaneous C4 activation (C4 [6]; plasma or whole blood collected in sodium heparin, 1° C. or 22° C.): ≥ 6 h

The next lines start with results.

- final concentration that completely prevented spontaneous iC3b fragment production (C3 [1]; compared with -70° C. control): ≥ 1.3 M
- spontaneous iC3b fragment production (C3 [1]): inhibited with increasing concentrations
Compound: OC[C@H]1O[C@H](O[C@H]2O[C@H](CO)[C@@H](O)[C@H](O)[C@H]2O)[C@H](O)[C@@H](O)[C@@H]1O [trehalose]
- final concentration identified as particularly effective (complement): ≥ 1.3 M
- range of final concentrations found to provide protection against spontaneous complement activation (complement): 0.6 to 3.5 M

- spontaneous iC3b fragment production (C3 [1]): inhibited with increasing concentrations
Compound: OC[C@H]1O[C@H](OC[C@H]2OC(O)[C@H](O)[C@@H](O)[C@@H]2O)[C@H](O)[C@@H](O)[C@H]1O (stereo partly shown) [melibiose]
- final concentration identified as particularly effective (complement): ≥ 1.5 M
- range of final concentrations found to provide protection against spontaneous complement activation (complement): 0.6 to 4 M

- prevention of spontaneous activation of C3 (C3 [2]; final concentration 2M): ineffective
Compound: N[C@@H]1C(O)O[C@H](CO)[C@@H](O)[C@@H]1O (stereo partly drawn) [D-mannosamine]

- spontaneous iC3b fragment production (C3 [1]): inhibited with increasing concentrations
Compound: OC[C@H]1O[C@@](CO)(O[C@H]2O[C@H](CO)[C@@H](O)[C@H](O)[C@H]2O)[C@@H](O)[C@@H]1O [sucrose]
- final concentration identified as particularly effective (complement): ≥ 1.75 M
- range of final concentrations found to provide protection against spontaneous complement activation (complement): 1.2 to 4 M

- prevention of spontaneous activation of C3 (C3 [2]; final concentration 0.5M): ineffective
Compound: N[C@H]1C(O)O[C@H](CO)[C@@H](O)[C@@H]1O (stereo partly shown) [glucosamine]

- prevention of spontaneous activation of C3 (C3 [2]; final concentration 0.5M): ineffective
Compound: O[C@H]1[C@H](O)[C@@H](O)[C@H](O)[C@@H](O)[C@H]1O [inositol]

- prevention of spontaneous activation of C3 (C3 [2]; final concentration 2M): ineffective
Compound: O=CC[C@H](O)[C@H](O)CO [2-deoxy-D-ribose]
- prevention of spontaneous activation of C4 (C4d fragment production) (C4 [4]; final concentration 2M): able to prevent
